23 compounds from patent US11352322B2, “Cyclopropyl-amide compounds as dual LSD1/HDAC inhibitors” (Jubilant Epicore LLC, priority 2016, dated 2022) can be followed below.

Series [1] is described as follows: Metabolic stability in liver microsomes, HLM. The settings on record: 1 μM, NADPH.
Description: (§1) The microsomal suspension was prepared by adding liver microsomes to 100 mM potassium phosphate buffer (pH7.4) to give a final protein concentration of 0.5 mg/mL. The stock solution of NCE (10 mM in DMSO) was added to the microsomes to provide a final concentration of 1 μM. […] Samples were vortexed and centrifuged at 5,000 rpm for 10 min to remove proteins. Supernatant were analyzed on LC-MS/MS.
Series [2] deals with MM1S. In words: Anticancer activity: Alamar Blue assay, MM1S. The series is classed as cell-based. The settings on record: Homo sapiens, MM1.S, read-out: MM1S EC50.
Description: Cells were seeded at 5000 cells/per well in 96-well tissue culture plate and incubated at 37° C./5% CO2. After 16-24 hours, fresh media was added to the wells. Compounds were then (1% DMSO conc.) added to the cells at 10 concentrations ranging from 10-0.0005 uM prepared in 3-fold serial dilutions. Cells were incubated for 68-72 h at 37° C./5% CO2. Alamar Blue™ reagent was added and incubated for 1-3 hours at 37° C./5% CO2. Plates were read on fluorescence reader at 540 nm excitation, 590 nm emission wave lengths.
Series [3] deals with LSD1 (Homo sapiens (Human), UniProt O60341). In words: TR-FRET Assay for LSD1. The settings on record: read-out: LSD1 IC50.
Description: TR-FRET Assay for LSD1 (Perkin Elmer)
Tranylcypromine (TCP), LSD1 inhibitor was procured from Selleckchem. […] Stop Solution containing 300 μM tranylcypromine in 1× LANCE Detection Buffer was added to the wells and incubated for 5 min at RT. Then, Detection mix containing 2 nM Eu-Ab and 50 nM ULight-Streptavidin in 1× LANCE Detection Buffer was prepared and added to the reaction mix. This mixture was incubated for 1 hour at room temperature.
Series [4] is described as follows: Metabolic stability in liver microsomes, MLM. Conditions: 1 μM, NADPH.
Description: as §1
For series [5], the target named is HDAC6 human recombinant enzyme (Homo sapiens (Human), UniProt Q9UBN7). In words: Histone Deacetylase Assay (BPS Biosciences), HDAC6. The series is classed as biochemical. The source says:
Histone Deacetylase Assay (BPS Biosciences)
Histone deacetylase assay was done as per manufacturer's instructions.

Structures can show the parent of a compound that is named as a salt. Where two headings read alike, the source gives them in different places.

Chain of HDAC6 human recombinant enzyme (Q9UBN7 whole entry): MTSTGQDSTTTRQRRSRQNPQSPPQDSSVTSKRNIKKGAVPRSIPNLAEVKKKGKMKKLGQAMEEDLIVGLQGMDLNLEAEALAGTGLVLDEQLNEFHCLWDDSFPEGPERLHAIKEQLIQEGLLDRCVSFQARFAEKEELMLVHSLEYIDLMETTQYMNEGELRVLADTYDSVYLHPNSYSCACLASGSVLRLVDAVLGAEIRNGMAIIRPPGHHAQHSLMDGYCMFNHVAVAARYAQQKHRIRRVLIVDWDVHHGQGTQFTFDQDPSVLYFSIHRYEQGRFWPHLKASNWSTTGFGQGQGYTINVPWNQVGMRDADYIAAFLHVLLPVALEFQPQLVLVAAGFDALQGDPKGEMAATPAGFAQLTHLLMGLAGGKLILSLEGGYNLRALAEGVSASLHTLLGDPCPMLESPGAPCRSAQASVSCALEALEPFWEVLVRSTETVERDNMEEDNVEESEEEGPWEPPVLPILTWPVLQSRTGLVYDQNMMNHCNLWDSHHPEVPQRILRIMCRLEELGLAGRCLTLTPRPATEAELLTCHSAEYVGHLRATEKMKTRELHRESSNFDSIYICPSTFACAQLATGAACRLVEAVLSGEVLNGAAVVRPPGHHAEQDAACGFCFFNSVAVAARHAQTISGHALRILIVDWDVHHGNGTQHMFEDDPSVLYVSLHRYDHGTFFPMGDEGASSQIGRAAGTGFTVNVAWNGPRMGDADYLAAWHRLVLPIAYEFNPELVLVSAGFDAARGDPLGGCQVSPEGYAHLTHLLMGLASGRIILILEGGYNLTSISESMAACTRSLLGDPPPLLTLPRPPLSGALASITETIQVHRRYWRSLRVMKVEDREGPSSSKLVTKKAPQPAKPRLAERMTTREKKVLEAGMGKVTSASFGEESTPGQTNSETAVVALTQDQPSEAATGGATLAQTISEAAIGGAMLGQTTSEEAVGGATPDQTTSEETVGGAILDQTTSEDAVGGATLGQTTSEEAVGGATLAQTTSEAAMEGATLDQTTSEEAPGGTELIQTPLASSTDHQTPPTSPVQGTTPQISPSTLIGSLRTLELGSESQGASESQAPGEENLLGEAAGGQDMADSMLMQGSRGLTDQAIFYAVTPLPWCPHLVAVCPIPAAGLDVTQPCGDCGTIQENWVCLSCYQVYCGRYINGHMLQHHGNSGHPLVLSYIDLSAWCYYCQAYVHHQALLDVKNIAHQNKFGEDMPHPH

Consider `O=C(/C=C/c1ccc(CNC2CC2c2ccc(-c3cncnc3)cc2)cc1)NO` (stereo not shown) [Example 7, (E)-N-hydroxy-3-(4-(((2-(4-(pyrimidin-5-yl)phenyl)cyclopropyl)amino)methyl)phenyl)acrylamide TFA Salt], for which the “Metabolic stability HLM % remaining in 30 min” value in series [1] is given as 70%. In addition, the EC50 in series [2] is 48 nM. In series [3], the IC50 is 27 nM. The “Metabolic stability MLM % remaining in 30 min” value in series [4] was less than 5%.

In the case of `O=C(NO)c1cnc(N2CCC(CNC3CC3c3ccc(-c4ccc(F)cc4)cc3)CC2)nc1` (stereo not shown) [Example 15, 2-(4-(((2-(4′-fluoro-[1,1′-biphenyl]-4-yl)cyclopropyl)amino)methyl)piperidin-1-yl)-N-hydroxypyrimidine-5-carboxamide TFA Salt], the EC50 in series [2] (MM1S cells) is 12 nM. Also, the values for the half-inhibitory concentration (IC50) in series [3] and in series [5] were 95 nM and 134 nM, respectively.

In the case of `O=C(NO)c1ccc(N2CCC(CNC3CC3c3ccc(F)cc3)CC2)cc1` (stereo not shown) [Example 22, 4-(4-(((2-(4-fluorophenyl)cyclopropyl)amino)methyl)piperidin-1-yl)-N-hydroxybenzamide TFA Salt], in series [1], the “Metabolic stability HLM % remaining in 30 min” value stood at 60%. For the same compound, the EC50 in series [2] worked out at 44 nM. Besides, the IC50 in series [3] was determined as 6400 nM. Also, the “Metabolic stability MLM % remaining in 30 min” value in series [4] is 38%.

On to `O=C(NO)C1CCC(NC2CC2c2ccccc2)CC1` (stereo not shown) [Example 33, 4-(2-Phenyl-cyclopropylamino)-cyclohexanecarboxylic Acid Hydroxyamide TFA Salt], for which the IC50 was 2250 nM in series [3] and more than 1000 nM in series [5].

On to `Cn1cc(-c2ccc(C3CC3NCC3CCN(Cc4ccc(C(=O)NO)cc4)CC3)cc2)ccc1=O` (stereo not shown) [Example 35, N-hydroxy-4-((4-(((2-(4-(1-methyl-6-oxo-1,6-dihydropyridin-3-yl)phenyl)cyclopropyl)amino)methyl)piperidin-1-yl)methyl)benzamide TFA Salt], for which the 50% effective concentration (EC50) in series [2] (MM1S cells) worked out at 1430 nM. Besides, the concentration for half-maximal inhibition (IC50) in series [3] worked out at 34 nM; in series [5] it was 199 nM.

As to `Cc1noc(C)c1-c1ccc(C2CC2NCC2CCN(Cc3ccc(C(=O)NO)cc3)CC2)cc1` (stereo not shown) [Example 37, 4-((4-(((2-(4-(3,5-dimethylisoxazol-4-yl)phenyl)cyclopropyl)amino)methyl)piperidin-1-yl)methyl)-N-hydroxybenzamide TFA salt], the “Metabolic stability HLM % remaining in 30 min” value in series [1] is 86%. For the same compound, the EC50 in series [2] came out at 1730 nM. The IC50 in series [3] was 43 nM. The “Metabolic stability MLM % remaining in 30 min” value in series [4] came out at 55%.

On to `O=C(NO)c1ccc(CN2CCC(CNC3CC3c3ccc(-c4cncnc4)cc3)CC2)cc1` (stereo not shown) [Example 38, N-hydroxy-4-((4-(((2-(4-(pyrimidin-5-yl)phenyl)cyclopropyl)amino)methyl)piperidin-1-yl)methyl)benzamide TFA Salt], for which the “Metabolic stability HLM % remaining in 30 min” value in series [1] was 87%. Moreover, the EC50 in series [2] came to 3640 nM. The IC50 in series [3] amounted to 53 nM. Further, in series [4], the “Metabolic stability MLM % remaining in 30 min” value was more than 95%.

As to `Cc1noc(C)c1-c1ccc(C2CC2NCC2CCN(Cc3ccc(C(=O)NO)cn3)CC2)cc1` (stereo not shown) [Example 39, 6-((4-(((2-(4-(3,5-dimethylisoxazol-4-yl)phenyl)cyclopropyl)amino)methyl)piperidin-1-yl)methyl)-N-hydroxynicotinamide TFA Salt], the “Metabolic stability HLM % remaining in 30 min” value in series [1] turned out to be 87%. In series [2], the 50% effective concentration (EC50) stood at 2970 nM. Also, the IC50 in series [3] stood at 34 nM. Further, the “Metabolic stability MLM % remaining in 30 min” value in series [4] is given as more than 95%.

For the compound `O=C(NO)c1ccc(Cn2cc(CNC3CC3c3ccccc3)nn2)cc1` (stereo not shown) [Example 41, N-hydroxy-4-((4-(((2-phenylcyclopropyl)amino)methyl)-1H-1,2,3-triazol-1-yl)methyl)benzamide TFA Salt], the IC50 was determined as 319 nM in series [3] and 74 nM in series [5].

For the compound `O=C(NO)c1ccc(CCN2CCC(CNC3CC3c3ccccc3)CC2)cc1` (stereo not shown) [Example 42, N-hydroxy-4-(2-(4-(((2-phenylcyclopropyl)amino)methyl)piperidin-1-yl)ethyl)benzamide TFA Salt], the EC50 in series [2] (MM1S cells) was determined as 190 nM. The IC50 in series [3] was determined as 15 nM; in series [5], 490 nM.

Consider `O=C(NO)c1ccc(CCCN2CCC(CNC3CC3c3ccc(F)c(F)c3)CC2)cc1` (stereo not shown) [Example 50, 4-(3-(4-(((2-(3,4-difluorophenyl)cyclopropyl)amino)methyl)piperidin-1-yl)propyl)-N-hydroxybenzamide TFA Salt], for which the “Metabolic stability HLM % remaining in 30 min” value in series [1] came out at 86%. Moreover, the concentration for a half-maximal effect (EC50) in series [2] worked out at 35 nM. Also, in series [3], the half-inhibitory concentration (IC50) worked out at 29 nM. For the same compound, in series [4], the “Metabolic stability MLM % remaining in 30 min” value is 80%.

In the case of `O=C(NO)c1ccc(CCCN2CCC(CNC3CC3c3ccc(C(=O)N4CCOCC4)cc3)CC2)cc1` (stereo not shown) [Example 53, N-hydroxy-4-(3-(4-(((2-(4-(morpholine-4-carbonyl)phenyl)cyclopropyl)amino)methyl)piperidin-1-yl)propyl)benzamide TFA Salt], the “Metabolic stability HLM % remaining in 30 min” value in series [1] was determined as 89%. Moreover, in series [3], the IC50 came to 22 nM. Besides, the “Metabolic stability MLM % remaining in 30 min” value in series [4] is reported as 82%.

Consider `O=C(NO)c1ccc(CCCN2CCC(CNC3CC3c3ccc(C(=O)N4CCCCC4)cc3)CC2)cc1` (stereo not shown) [Example 54, N-hydroxy-4-(3-(4-(((2-(4-(piperidine-1-carbonyl)phenyl)cyclopropyl)amino)methyl)piperidin-1-yl)propyl)benzamide TFA Salt], for which, in series [1], the “Metabolic stability HLM % remaining in 30 min” value came to 65%. In addition, the IC50 in series [3] was determined as 23 nM. Moreover, in series [4], the “Metabolic stability MLM % remaining in 30 min” value is 72%.

On to `N#Cc1ccc(-c2ccc(C3CC3NCC3CCN(CCCc4ccc(C(=O)NO)cc4)CC3)cc2)cc1` (stereo not shown) [Example 59, 4-(3-(4-(((2-(4′-cyano-[1,1′-biphenyl]-4-yl)cyclopropyl)amino)methyl)piperidin-1-yl)propyl)-N-hydroxybenzamide TFA Salt], for which, in series [1], the “Metabolic stability HLM % remaining in 30 min” value is recorded as 76%. The IC50 in series [3] came out at 32 nM. Also, in series [4], the “Metabolic stability MLM % remaining in 30 min” value turned out to be 75%.

Regarding `Cn1cc(-c2ccc(C3CC3NCC3CN(CCCc4ccc(C(=O)NO)cc4)C3)cc2)cn1` (stereo not shown) [Example 63, N-hydroxy-4-(3-(3-(((2-(4-(1-methyl-1H-pyrazol-4-yl)phenyl)cyclopropyl)amino)methyl)azetidin-1-yl)propyl)benzamide TFA Salt], in series [1], the “Metabolic stability HLM % remaining in 30 min” value is recorded as 86%. Moreover, in series [2], the EC50 came to 191 nM. In addition, the IC50 in series [3] came out at 31 nM. Also, the “Metabolic stability MLM % remaining in 30 min” value in series [4] came out at 69%.

As to `CC(C)n1cc(C2CC2NCC2CCN(CCCc3ccc(C(=O)NO)cc3)CC2)cn1` (stereo not shown) [Example 67, N-hydroxy-4-(3-(4-(((2-(1-isopropyl-1H-pyrazol-4-yl)cyclopropyl)amino)methyl)piperidin-1-yl)propyl)benzamide TFA Salt], the EC50 in series [2] (MM1S cells) is 70 nM. Besides, the IC50 in series [3] worked out at 484 nM; in series [5] it was 272 nM.

In the case of `O=C(NO)c1ccc(CCCn2cnc(CNC3CC3c3ccccc3)c2)cc1` (stereo not shown) [Example 75, N-hydroxy-4-(3-(4-(((2-phenylcyclopropyl)amino)methyl)-1H-imidazol-1-yl)propyl) benzamide TFA Salt], the EC50 in series [2] (MM1S cells) was determined as 246 nM. Moreover, the IC50 in series [3] was found to be 286 nM; in series [5] it was 365 nM.

For the compound `O=C(NO)c1ccc(CCCn2cc(CNC3CC3c3ccccc3)cn2)cc1` (stereo not shown) [Example 76, N-hydroxy-4-(3-(4-(((2-phenylcyclopropyl)amino)methyl)-1H-pyrazol-1-yl)propyl)benzamide TFA Salt], in series [2] (MM1S cells), the half-maximal effective concentration (EC50) came out at 42 nM. Moreover, the IC50 in series [3] was found to be 84 nM; in series [5], 22 nM.

Take `O=C(NO)c1ccc(CCC(=O)N2CCC(NC3CC3c3ccccc3)CC2)cc1` (stereo not shown) [Example 83, N-hydroxy-4-(3-oxo-3-(4-((2-phenylcyclopropyl)amino)piperidin-1-yl)propyl)benzamide TFA Salt]: the “Metabolic stability HLM % remaining in 30 min” value in series [1] came out at 69%. Moreover, the 50% effective concentration (EC50) in series [2] came out at 153 nM. Moreover, the IC50 in series [3] stood at 90 nM. For the same compound, in series [4], the “Metabolic stability MLM % remaining in 30 min” value amounted to 82%.

Turning to `O=C(NO)c1ccc(CS(=O)(=O)NCCN2CCC(CNC3CC3c3ccccc3)CC2)cc1` (stereo not shown) [Example 86, N-hydroxy-4-((N-(2-(4-(((2-phenylcyclopropyl)amino)methyl)piperidin-1-yl)ethyl)sulfamoyl)methyl)benzamide TFA Salt], in series [1], the “Metabolic stability HLM % remaining in 30 min” value amounted to 71%. In addition, the EC50 in series [2] turned out to be 676 nM. In addition, in series [3], the IC50 was determined as 18 nM. The “Metabolic stability MLM % remaining in 30 min” value in series [4] stood at 58%.

Regarding `O=C(NO)c1ccc(OCCN2CCC(CNC3CC3c3ccc(F)cc3)CC2)nc1` (stereo not shown) [Example 96, 6-(2-(4-(((2-(4-fluorophenyl)cyclopropyl)amino)methyl)piperidin-1-yl)ethoxy)-N-hydroxynicotinamide TFA Salt], in series [1], the “Metabolic stability HLM % remaining in 30 min” value is 93%. For the same compound, in series [2], the EC50 is more than 10000 nM. Moreover, the IC50 in series [3] stood at 22 nM. In addition, the “Metabolic stability MLM % remaining in 30 min” value in series [4] is 89%.

As for `O=C(NO)c1csc(CCCN2CCC(CNC3CC3c3ccc(-c4ccc(F)cc4)cc3)CC2)n1` (stereo not shown) [Example 111, 2-(3-(4-(((2-(4′-fluoro-[1,1′-biphenyl]-4-yl)cyclopropyl)amino)methyl)piperidin-1-yl)propyl)-N-hydroxythiazole-4-carboxamide TFA Salt], the “Metabolic stability HLM % remaining in 30 min” value in series [1] is given as 95%. The EC50 in series [2] is 3060 nM. For the same compound, in series [3], the IC50 was found to be 22 nM. Further, in series [4], the “Metabolic stability MLM % remaining in 30 min” value turned out to be 91%.

As to `Cc1noc(C)c1-c1ccc(C2CC2NCC2CCN(C(=O)/C=C/c3ccc(C(=O)NO)cc3)CC2)cc1` (stereo not shown) [Example 116, (E)-4-(3-(4-(((2-(4-(3,5-dimethylisoxazol-4-yl)phenyl)cyclopropyl)amino)methyl)piperidin-1-yl)-3-oxoprop-1-en-1-yl)-N-hydroxybenzamide TFA Salt], the “Metabolic stability HLM % remaining in 30 min” value in series [1] was 63%. In addition, the EC50 in series [2] came to 157 nM. Moreover, the IC50 in series [3] was determined as 69 nM. Also, the “Metabolic stability MLM % remaining in 30 min” value in series [4] is 50%.
